Measured values: patent US20260022142A1, “MACROCYCLIC IMMUNOMODULATORS” (Bristol-Myers Squibb Company, priority 2022, published 2026)
Bridge positions count the residues as written; N and C are the ends. Square brackets hold non-standard residues; d marks the D form. Peptide text beside a SMILES is read from it. * marks the point of attachment. ξ: configuration not given here. Bip = N[C@@H](Cc1ccc(-c2ccccc2)cc1)C(=O)O; Phe(3-Me) = Cc1cccc(C[C@H](N)C(=O)O)c1; Phe(4-F) = N[C@@H](Cc1ccc(F)cc1)C(=O)O; 4Pal = N[C@@H](Cc1ccncc1)C(=O)O; 3Thi = N[C@@H](Cc1ccsc1)C(=O)O; Cha = N[C@@H](CC1CCCCC1)C(=O)O; Thr(3ξ) = CC(O)[C@H](N)C(=O)O; Carboxymethyl = O=C(O)C*; Orn = NCCC[C@H](N)C(=O)O; Aun = NCCCCCCCCCCC(=O)O; Dab = NCC[C@H](N)C(=O)O; Dap = NC[C@H](N)C(=O)O; AEEA = NCCOCCOCC(=O)O

Target: T1, PD-1/PD-L1 interaction (PE-labeled human PD-L1-Ig binding to Jurkat cell line over-expressing human PD-1) (Homo sapiens, UniProt Q15116)
T1 construct: expressed in transfected cells; host or cells: Jurkat
T1 sequence (Q15116 25-288): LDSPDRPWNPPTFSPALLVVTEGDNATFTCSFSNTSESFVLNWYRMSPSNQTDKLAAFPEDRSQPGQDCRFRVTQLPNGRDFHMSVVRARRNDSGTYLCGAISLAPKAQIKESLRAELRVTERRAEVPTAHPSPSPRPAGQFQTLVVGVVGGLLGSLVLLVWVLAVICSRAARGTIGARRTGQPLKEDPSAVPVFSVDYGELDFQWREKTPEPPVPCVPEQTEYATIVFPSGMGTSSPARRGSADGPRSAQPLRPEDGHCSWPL
Assay: Jurkat-PD-1 Cell Binding High-Content Screening Assay (CBA)
Format: cell-based
Conditions: Jurkat cell line over-expressing human PD-1; PE-labeled PD-L1-Ig 20 nM final; read-out: Jurkat hPD1-PDL1 IC50
How it was run: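 Jurkat cells stably over-expressing human PD-1 were seeded in DMEM with 10% fetal calf serum and pre-incubated with compound for 2 h at 37° C. PE-labeled human PD-L1-Ig was then added at 20 nM final for 1 hour, after which cells were fixed with paraformaldehyde, Hoechst-stained and imaged by high-content microscopy.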

IC50 | SMILES
18.3 nM | CC(C)C[C@H]1NC(=O)[C@H](CCCN)NC(=O)[C@H](C(C)C)NC(=O)[C@H](Cc2ccc(-c3ccccc3)cc2)NC(=O)[C@H](C(C)C)NC(=O)[C@H](Cc2c[nH]c3ccccc23)NC(=O)[C@H](CC(=O)O)NC(=O)[C@H](Cc2ccc(OCC(=O)O)cc2)NC(=O)[C@H](Cc2ccsc2)NC(=O)CSC[C@@H](C(=O)NCCOCCOCC(=O)N[C@@H](CCCN)C(=O)NCCCCCCCCCCC(=O)O)NC(=O)[C@H](C(C)O)NC(=O)[C@H](C(C)C)NC(=O)[C@H](CC2CCCCC2)NC(=O)[C@H](CCN)NC1=O (stereo partly drawn) [Compound 3211] ({CH2CO}-[3Thi]Y(Carboxymethyl)DWV[Bip]V[Orn][dL][Dab][Cha]V[Thr(3ξ)]C[AEEA][Orn][Aun]-OH; thioether N-14)
16.9 nM | Cc1cccc(C[C@@H]2NC(=O)[C@H](CC(=O)O)NC(=O)[C@H](Cc3ccc(OCC(=O)O)cc3)NC(=O)[C@H](CN)NC(=O)CSC[C@@H](C(=O)N[C@@H](CCN)C(=O)NCCOCCOCC(=O)NCCCCCCCCCCC(=O)O)NC(=O)[C@H](CCCN)NC(=O)[C@H](C(C)C)NC(=O)[C@H](CC3CCCCC3)NC(=O)[C@H](CCN)NC(=O)[C@@H](CC(C)C)NC(=O)[C@H](CCCN)NC(=O)[C@H](Cc3ccc(F)cc3)NC(=O)[C@H](Cc3ccc(-c4ccccc4)cc3)NC(=O)[C@H](Cc3ccc(O)cc3)NC2=O)c1 [Compound 2049] ({CH2CO}-[Dap]Y(Carboxymethyl)D[Phe(3-Me)]Y[Bip][Phe(4-F)][Orn][dL][Dab][Cha]V[Orn]C[Dab][AEEA][Aun]-OH; thioether N-14)
8.9 nM | Cc1cccc(C[C@@H]2NC(=O)[C@H](CC(=O)O)NC(=O)[C@H](Cc3ccc(OCC(=O)O)cc3)NC(=O)[C@H](CN)NC(=O)CSC[C@@H](C(=O)NCCOCCOCC(=O)N[C@@H](CCCCN)C(=O)NCCCCCCCCCCC(=O)O)NC(=O)[C@H](CCCN)NC(=O)[C@H](C(C)C)NC(=O)[C@H](CC3CCCCC3)NC(=O)[C@H](CCN)NC(=O)[C@@H](CC(C)C)NC(=O)[C@H](CCCN)NC(=O)[C@H](C(C)C)NC(=O)[C@H](Cc3ccc(-c4ccccc4)cc3)NC(=O)[C@H](C(C)C)NC2=O)c1 [Compound 2597] ({CH2CO}-[Dap]Y(Carboxymethyl)D[Phe(3-Me)]V[Bip]V[Orn][dL][Dab][Cha]V[Orn]C[AEEA]K[Aun]-OH; thioether N-14)

Continued, compound first:

SMILES | IC50
CC(C)C[C@@H]1NC(=O)[C@H](CCN)NC(=O)[C@@H](CC(C)C)NC(=O)[C@H](CCCN)NC(=O)[C@H](Cc2ccc(O)cc2)NC(=O)[C@H](Cc2ccc(-c3ccccc3)cc2)NC(=O)[C@H](C(C)C)NC(=O)[C@H](Cc2c[nH]c3ccccc23)NC(=O)[C@H](CC(=O)O)NC(=O)[C@H](Cc2ccc(OCC(=O)O)cc2)NC(=O)[C@H](Cc2ccncc2)NC(=O)CSC[C@@H](C(=O)N[C@@H](CCN)C(=O)NCCCCCCCCCCC(=O)O)NC(=O)[C@H]([C@@H](C)O)NC(=O)[C@H](C(C)C)NC1=O [Compound 2742] ({CH2CO}-[4Pal]Y(Carboxymethyl)DWV[Bip]Y[Orn][dL][Dab]LVTC[Dab][Aun]-OH; thioether N-14) | 133 nM
Cc1cccc(C[C@@H]2NC(=O)[C@H](CC(=O)O)NC(=O)[C@H](Cc3ccc(OCC(=O)O)cc3)NC(=O)[C@H](C(C)O)NC(=O)CSC[C@@H](C(=O)N[C@H](CCC(=O)O)C(=O)NCCCCCCCCCCC(=O)O)NC(=O)[C@H](C(C)O)NC(=O)[C@H](C(C)C)NC(=O)[C@H](CC3CCCCC3)NC(=O)[C@H](CCN)NC(=O)[C@@H](CC(C)C)NC(=O)[C@H](CCCN)NC(=O)[C@H](C(C)C)NC(=O)[C@H](Cc3ccc(-c4ccccc4)cc3)NC(=O)[C@H](Cc3ccc(O)cc3)NC2=O)c1 (stereo partly drawn) [Compound 3435] ({CH2CO}-[Thr(3ξ)]Y(Carboxymethyl)D[Phe(3-Me)]Y[Bip]V[Orn][dL][Dab][Cha]V[Thr(3ξ)]C[dE][Aun]-OH; thioether N-14) | 12.9 nM
